Values of other authors in US20020132751A1, “Detergent compositions” (Unilever Home & Personal Care USA, Division of Conopco, Inc., priority 2000, published 2002).

Conditions: grams of solid to form a saturated solution in 100 grams of water at 20° C.

Row | SMILES | Water Solubility (g/100 g)
1 | O=P(O)(O)OP(=O)(O)OP(=O)(O)O [Sodium tripolyphosphate anhydrous] | 15
2 | O=BO[O-].[Na+] [Sodium perborate anhydrous] | 3.7
